According to PubChem BioAssay (NCI):
Several values for one entry are separate records, joined by “and”; a condition that tells them apart may be missing. Identical values can stand only once.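 Test compounds were applied to cells in 96-well plates for 48 hours at 5 doses. Abbreviation: GI50, concentration required for 50% inhibition of growth. Definition used: TGI = concentration required for complete inhibition of growth.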

Experiments:
Experiment in all cases: growth of human tumour cells (NCI), 48 h
[1] = system: COLO 205 colon
[2] = system: HCC-2998 colon
[3] = system: HOP-62 NSCLC
[4] = system: K-562 leukemia
[5] = system: MDA-MB-435
[6] = system: SF-539 CNS
[7] = system: SNB-75 CNS
[8] = system: UACC-257 melanoma

| Structure (SMILES) | GI50 [1] | TGI [1] | GI50 [2] | TGI [2] | GI50 [3] | TGI [3] | GI50 [4] | TGI [4] | GI50 [5] | TGI [5] | GI50 [6] | TGI [6] | GI50 [7] | TGI [7] | GI50 [8] | TGI [8] |
| --- | --- | --- | --- | --- | --- | --- | --- | --- | --- | --- | --- | --- | --- | --- | --- | --- |
| C#C[C@]1(O)CC[C@H]2[C@@H]3CC=C4c5sc(N=C(N)N)nc5CC[C@]4(C)[C@H]3CC[C@@]21C | 0.667 µM | 2.24 µM | 1.59 µM | 3.1 µM | 0.984 µM | 2.62 µM | 0.354 µM | 1.35 µM | 0.7 µM | 2.01 µM | 0.233 µM | 1.12 µM | 0.152 µM | 1.32 µM | 0.369 µM | 1.4 µM |
| COc1ccc2c(c1)CC[C@@H]1[C@@H]2CC[C@@]2(C)[C@H]1CC1(CCCCC1)[C@@H]2O | 7.35 µM | 26 µM | 14.1 µM | 28.5 µM | 18.3 µM | 34.3 µM |  |  | 16.5 µM | 33.8 µM | 4.22 µM | 16.6 µM | 16.4 µM | 35.1 µM | 23.6 µM | 47.2 µM |
| CN1CCC2(CC1)C(=O)N(N1CCCCCC1)C(=O)N2c1ccccc1 |  | > 100 µM |  | > 100 µM |  | > 100 µM |  | > 100 µM |  | > 100 µM |  | > 100 µM |  | > 100 µM |  | > 100 µM |
| COc1cc(/C=C/C(C)=O)ccc1OP(=O)(O)O |  | > 100 µM |  | > 100 µM |  | > 100 µM |  |  |  | > 100 µM |  | > 100 µM |  | > 100 µM |  | > 100 µM |
| COc1cc([C@@H]2c3cc4c(cc3[C@@H](NCCNCCO)[C@H]3COC(=O)[C@H]23)OCO4)cc(OC)c1O |  | 24 µM and 24.5 µM | 3.39 µM and 1.58 µM | 32.2 µM and 12.1 µM |  | 5.18 µM and 6.52 µM | 1.45 µM | > 100 µM |  | 35 µM and 31.6 µM | 0.702 µM and 0.171 µM | 3.13 µM and 1.04 µM |  | 8.64 µM and 5.94 µM |  | > 30.5 µM and 39.9 µM |
| O=C1Nc2ccccc2C1Cc1ccccc1 (configuration not stated) |  | > 100 µM |  | > 100 µM |  | > 100 µM |  | > 100 µM |  | > 100 µM |  | > 100 µM |  | > 100 µM |  | > 100 µM |
| CC(=O)/C=C/C1=C(c2cc3ccccc3s2)c2ccccc2CC1 | 29.9 µM | > 100 µM | 22.7 µM | 50.2 µM | 36.5 µM | > 100 µM | 15.2 µM | > 100 µM | 23 µM | 52.5 µM | 27.2 µM | 64.7 µM | 29.8 µM | > 100 µM | 24.4 µM | 59.7 µM |
| Cn1c(=O)cc2c3c(c(NCCCO)ccc31)C(=O)c1ccccc1-2 | 3.86 µM | > 100 µM | 5.23 µM | > 100 µM | 19.2 µM | > 100 µM | 2.09 µM | 64.3 µM | 3.47 µM | > 100 µM | 8.8 µM | > 100 µM | 4.36 µM | > 100 µM | 5.37 µM | > 100 µM |
| CN1C(=O)CNC(=O)[C@H](NC(=O)c2nc3ccccc3cc2O)CSSC[C@H]1C(=O)NCCc1nc2ccccc2cc1O | 2.94 µM | 12.7 µM | 15.7 µM | > 75.9 µM | 17.6 µM | 53.4 µM | 1.57 µM | 13.9 µM | 2.5 µM | 35.8 µM | 15.2 µM | 39.1 µM | 15 µM | 33.9 µM | 17.1 µM | 72.9 µM |
